Measured values published in patent US10647680B2, “Urea compound, preparation method therefor and medical use thereof” (Ancureall Pharmaceutical (Shanghai) Co., Ltd., priority 2016, dated 2020).

Assays:
Format in all cases: in vitro ADME
Settings in all cases: human liver microsomes
[1] = biological target: T1, CYP2D6 (Homo sapiens, UniProt P10635); test: P450 enzyme inhibition, CYP2D6
T1 construct: human liver microsomes (BD Gentest) (0.5 mg/mL); tissue BD Gentest; host or cells: human liver microsomes
Experimental: (§1) Eight cytochrome p450 enzyme inhibition reactions of human liver microsomes were performed using compound 77 of the present invention as a representative example.
(§2) The main reaction systems and processes: in 37° C. water bath, the test compounds (7 concentrations, 0, 0.25, 0.5, 5, 10, 25, and 50 uM; the final methanol concentration was 1% in the system), human liver microsomes (BD Gentest) (0.5 mg/mL) and reducing coenzyme II (Roche 10621706001) (1 mg/mL) and the corresponding cytochrome p450 enzyme probe substrate were co-incubated for 5 to 20 minutes. Among them, (1) the probe substrate for CYP1A2 was Phenacetin ([…]) (Sigma), and the selective inhibitor alpha-naphthoflavone (2 uM) (Sigma) was for parallel detection as positive control, and they were incubated for 20 minutes. (2) The probe substrate for CYP2b6 was Bupropion (40 uM) (Sigma) and the selective inhibitor Ticlopidine (10 uM) (Sigma) was for parallel detection as positive control, and they were incubated for 20 minutes. (3) The probe substrate of CYP2C8 was Amodiaquine (1 uM) (Sigma), and the selective inhibitor Montelukast (10 uM) (Sigma) was for parallel detection as positive control, and they were incubated for 20 minutes. (4) The probe substrate for CYP2C9 was Diclofenac (2.5 uM) (Sigma), and the selective inhibitor Sulphaphenazole (10 uM) (Sigma) was for parallel detection as positive control, and they were incubated for 20 minutes. (5) The probe substrate for CYP2C19 was Mephenytoin (40 uM) (Sigma), and the selective inhibitor Ticlopidine (10 uM) (Sigma) was for parallel detection as positive control, and they were incubated for 20 minutes. (6) The probe substrate for CYP2D6 was Dextromethorphan (5 uM) (Sigma), and the selective inhibitor Quinidine (10 uM) (Sigma) was for parallel detection as positive control, and they were incubated for 20 minutes. (7) The probe substrates for CYP3A4-T and CYP3A4-M were Testosterone (5 uM) (Sigma) and Midazolam (5 uM) (Sigma), respectively, and the selective inhibitor was Ketoconazole (1 uM) (Sigma), they were detected in parallel as positive control, and incubated for 5 minutes. The reaction system was quenched by adding methanol containing the corresponding internal standard. The internal standard compound was Tolbutamide (Sigma). The concentration of the corresponding metabolites was determined by LC/MS/MS. For the data analysis, the decrease in peak area of the metabolite of the sample after addition of compound 77 relative to the peak area of the metabolite of the solvent control sample was used to calculate the IC50 (concentration of the test substance at 50% inhibition). The percentages of peak areas of metabolites of CYP1A2, CYP2B6, CYP2C8, CYP2C9, 15CYP2C19, CYP2D6, CYP3A4-T, and CYP3A4-M probe substrates after addition of different concentrations of compound 77 and selective inhibitors relative to the solvent control peak areas were shown in the Table 7.

[2] = biological target: T2, CYP1A2 (Homo sapiens, UniProt P05177); test: P450 enzyme inhibition, CYP1A2
T2 construct: human liver microsomes (BD Gentest) (0.5 mg/mL); tissue BD Gentest; host or cells: human liver microsomes
T2 sequence (P05177 1-516): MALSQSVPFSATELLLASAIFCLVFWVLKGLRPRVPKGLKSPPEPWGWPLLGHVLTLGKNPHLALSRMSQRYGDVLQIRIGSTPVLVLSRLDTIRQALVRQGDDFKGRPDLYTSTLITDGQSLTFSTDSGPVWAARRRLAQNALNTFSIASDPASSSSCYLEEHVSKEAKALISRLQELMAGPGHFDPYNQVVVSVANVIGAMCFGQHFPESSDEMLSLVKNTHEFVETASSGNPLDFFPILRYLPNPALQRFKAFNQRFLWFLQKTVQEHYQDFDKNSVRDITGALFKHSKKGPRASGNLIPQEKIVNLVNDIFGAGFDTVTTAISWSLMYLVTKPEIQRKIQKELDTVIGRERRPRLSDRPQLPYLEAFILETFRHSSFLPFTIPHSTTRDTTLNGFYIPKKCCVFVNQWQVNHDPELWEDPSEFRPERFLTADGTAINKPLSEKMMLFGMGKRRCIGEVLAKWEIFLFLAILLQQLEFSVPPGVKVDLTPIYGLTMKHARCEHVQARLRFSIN
Experimental: as §1, §2

[3] = biological target: T3, CYP2C8 (Homo sapiens, UniProt P10632); test: P450 enzyme inhibition, CYP2C8
T3 construct: human liver microsomes (BD Gentest) (0.5 mg/mL); tissue BD Gentest; host or cells: human liver microsomes
T3 sequence (P10632 1-490): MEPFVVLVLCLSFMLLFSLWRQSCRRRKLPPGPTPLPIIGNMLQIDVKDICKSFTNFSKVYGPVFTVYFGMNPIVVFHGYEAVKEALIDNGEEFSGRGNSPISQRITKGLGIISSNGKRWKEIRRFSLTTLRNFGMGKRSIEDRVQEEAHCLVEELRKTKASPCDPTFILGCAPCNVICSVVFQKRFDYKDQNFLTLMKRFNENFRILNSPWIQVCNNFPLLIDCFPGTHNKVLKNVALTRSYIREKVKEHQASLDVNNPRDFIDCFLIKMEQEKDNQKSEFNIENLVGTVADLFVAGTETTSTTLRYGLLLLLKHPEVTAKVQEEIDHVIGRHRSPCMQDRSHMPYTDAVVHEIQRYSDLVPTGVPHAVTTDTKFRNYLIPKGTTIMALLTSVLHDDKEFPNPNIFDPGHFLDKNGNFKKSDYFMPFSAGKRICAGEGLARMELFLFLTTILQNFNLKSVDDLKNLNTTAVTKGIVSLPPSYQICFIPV
Experimental: as §1, §2

T1 sequence (P10635 whole entry): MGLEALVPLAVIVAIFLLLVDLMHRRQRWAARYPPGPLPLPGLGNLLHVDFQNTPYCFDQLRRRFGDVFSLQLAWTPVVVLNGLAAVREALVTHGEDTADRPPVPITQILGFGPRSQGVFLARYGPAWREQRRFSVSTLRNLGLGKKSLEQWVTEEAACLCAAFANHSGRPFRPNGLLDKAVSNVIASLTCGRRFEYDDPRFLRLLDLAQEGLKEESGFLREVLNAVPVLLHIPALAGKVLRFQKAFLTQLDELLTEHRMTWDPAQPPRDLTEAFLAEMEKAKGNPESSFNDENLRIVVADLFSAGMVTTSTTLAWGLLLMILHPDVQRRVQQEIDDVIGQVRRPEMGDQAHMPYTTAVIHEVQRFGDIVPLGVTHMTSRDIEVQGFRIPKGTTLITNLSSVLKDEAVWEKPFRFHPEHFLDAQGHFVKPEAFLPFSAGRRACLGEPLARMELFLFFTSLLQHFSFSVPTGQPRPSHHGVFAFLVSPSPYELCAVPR

COCCOc1ccc2c(c1)ncn2-c1ccc(NC(=O)Nc2cc(C(C)(C)C)n[nH]2)cc1 [Compound 77, 1-(5-tert-butyl-2H-pyrazol-3-yl)-3-{4-[5-(2-methoxyl-ethoxyl)-benzimidazol-1-yl]-phenyl}-urea]
CYP2D6 Remaining % ([1]; Concentration 0.25 uM): 105.1% | CYP2D6 Remaining % ([1]; Concentration 0.5 uM): 97.7% | CYP2D6 Remaining % ([1]; Concentration 5 uM): 98.8% | CYP2D6 Remaining % ([1]; Concentration 10 uM): 96.3% | CYP2D6 Remaining % ([1]; Concentration 25 uM): 90.3% | CYP2D6 Remaining % ([1]; Concentration 50 uM): 64.9% | IC50 ([1]; read-out: half-inhibitory concentration (IC50) of CYP2D6): > 50 µM | CYP1A2 Remaining % ([2]; Concentration 0.25 uM): 95.7% | CYP1A2 Remaining % ([2]; Concentration 0.5 uM): 99.8% | CYP1A2 Remaining % ([2]; Concentration 5 uM): 94.1% | CYP1A2 Remaining % ([2]; Concentration 10 uM): 92.1% | CYP1A2 Remaining % ([2]; Concentration 25 uM): 80.9% | CYP1A2 Remaining % ([2]; Concentration 50 uM): 63.4% | IC50 ([2]; read-out: half-inhibitory concentration (IC50) of CYP1A2): > 50 µM | CYP2C8 Remaining % ([3]; Concentration 0.25 uM): 99.2% | CYP2C8 Remaining % ([3]; Concentration 0.5 uM): 103.5% | CYP2C8 Remaining % ([3]; Concentration 5 uM): 90.7% | CYP2C8 Remaining % ([3]; Concentration 10 uM): 88.5% | CYP2C8 Remaining % ([3]; Concentration 25 uM): 81.7% | CYP2C8 Remaining % ([3]; Concentration 50 uM): 49.1% | IC50 [3]: ≥ 50 µM
